Experiments:
Cathepsin K = target: T1, Cathepsin K (Homo sapiens, UniProt P43235); experiment: Cathepsin K inhibition assay (fluorogenic peptide substrate); selectivity ratio vs cathepsin S; type: biochemical; conditions: ratio of cathepsin K inhibition constant to cathepsin S inhibition constant; Table II
T1 sequence (P43235 115-329): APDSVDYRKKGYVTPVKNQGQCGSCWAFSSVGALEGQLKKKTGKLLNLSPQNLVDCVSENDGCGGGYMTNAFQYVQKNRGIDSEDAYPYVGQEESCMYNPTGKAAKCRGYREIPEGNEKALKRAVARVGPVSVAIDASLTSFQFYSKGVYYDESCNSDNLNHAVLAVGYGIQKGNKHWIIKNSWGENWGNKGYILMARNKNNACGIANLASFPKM
Description: The optimal substrate for cathepsin K, acetyl-lysine-histidine-proline-lysine-amino carbamoyl coumarin, was identified from screening a combinatorial library of fluorogenic peptide substrates (Harris, J. L., B. J. Backes, et al., Proc Natl Acad Sci USA 2000, 97(14), 7754-9). Kinetic measurements are performed in a total reaction volume of 30 μl in 384-well microtiter plates. […] The reactions are initiated by adding the substrate, acetyl-lysine-histidine-proline-lysine-amino carbamoyl coumarin, to a final concentration of 40 μM. The rate of substrate hydrolysis is measured by monitoring the increase in fluorescence at an excitation wavelength of 380 nm and an emission wavelength of 450 nm that results from cleavage of the aniline bond in the substrate by the enzyme. The apparent inhibition constants for the compounds are determined from the enzyme progress curves ([…]. Elrod, et al., Anal Biochem 2000, 286(1), 45-50) and are then used to calculate the inhibition constants for competitive inhibitors. Selectivity for cathepsin S in the presence of cathepsin isozymes was determined by the ratio of the cathepsin isozyme inhibition constant of a compound of the present invention to the cathepsin S inhibition constant of the same compound.

Cathepsin S = Cathepsin S (Homo sapiens, UniProt P25774); experiment: Cathepsin S inhibition assay (fluorogenic peptide substrate); type: biochemical; conditions: Table II, compounds of Formula I; read-out: Ki Cat. S
Sequence of Cathepsin S (P25774 115-331, species assumed): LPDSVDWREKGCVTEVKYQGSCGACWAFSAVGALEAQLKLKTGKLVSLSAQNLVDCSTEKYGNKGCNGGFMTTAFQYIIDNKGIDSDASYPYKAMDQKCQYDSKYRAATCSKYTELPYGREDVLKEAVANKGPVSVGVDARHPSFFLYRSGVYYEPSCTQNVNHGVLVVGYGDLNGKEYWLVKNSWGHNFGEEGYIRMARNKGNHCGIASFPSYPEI
Description: “Inhibition constant”, Ki, is the dissociation constant of the enzyme-inhibitor complex, or the reciprocal of the binding affinity of the inhibitor to the enzyme. […] The inhibited rates are then fit by nonlinear regression to the following equation: […]
The assumption being made for the classical inhibition described above is that the free inhibitor concentration is equal to the total inhibitor concentration.
Kinetic measurements are performed in a total reaction volume of 30 μl in 384-well microtiter plates. […] The reactions are initiated by adding the substrate, acetyl-histidine-proline-valine-lysine-amino carbamoyl coumarin, to a final concentration of 50 μM. The rate of substrate hydrolysis is measured by monitoring the increase in fluorescence at an excitation wavelength of 380 nm and an emission wavelength of 450 nm that results from cleavage of the aniline bond in the substrate by the enzyme.

Row | Compound | Selectivity for Cat. S over Cat. K (Cathepsin K) | Ki (Cathepsin S) [nM]
1 | COc1ccc(NCCNC(=O)[C@H](CCc2ccccc2)NC(=O)c2ccc(-c3cccc(C(F)(F)F)c3)o2)cc1 [Compound 1, N-((S)-1-(2-(4-methoxyphenylamino)ethylcarbamoyl)-3-phenylpropyl)-5-(3-(trifluoromethyl)phenyl)furan-2-carboxamide] | ++ (++, >100) | < 1000
2 | COc1ccc(NCCNC(=O)[C@H](CC2CCOCC2)NC(=O)c2ccc(-c3cccc(C(F)(F)F)c3)o2)cc1 [Compound 5, N-((S)-1-(2-(4-methoxyphenylamino)ethylcarbamoyl)-2-(tetrahydro-2H-pyran-4-yl)ethyl)-5-(3-(trifluoromethyl)phenyl)furan-2-carboxamide] | + (+, >10) | < 1000
3 | COc1ccc(NCCNC(=O)[C@H](Cc2ccc(Oc3cccc(C)c3C)cc2)NC(=O)c2cccc(C)c2)cc1 [Compound 7, (S)-N-{2-[4-(2,3-Dimethyl-phenoxy)-phenyl]-1-[2-(4-methoxy-phenylamino)-ethylcarbamoyl]-ethyl}-3-methyl-benzamide] | ++ (++, >100) | < 1000
4 | CC(=O)N1CCC(C(=O)N[C@@H](CC2CCCCC2)C(=O)NCCNc2ccc(OC(F)(F)F)cc2)CC1 [Compound 14, 1-Acetyl-piperidine-4-carboxylic acid (S)-{2-cyclohexyl-1-[2-(4-trifluoromethoxy-phenylamino)-ethylcarbamoyl]-ethyl}-amide] | ++ (++, >100) | < 1000
5 | CC(=O)N1CCN(c2ccc(OCC(=O)N[C@@H](CC3CCCCC3)C(=O)NCCNc3ccc(OC(F)(F)F)cc3)cc2)CC1 [Compound 15, (S)-2-{2-[4-(4-Acetyl-piperazin-1-yl)-phenoxy]-acetylamino}-3-cyclohexyl-N-[2-(4-trifluoromethoxy-phenylamino)-ethyl]-propionamide] | + (+, >10) | < 1000
6 | COc1ccc(NCCNC(=O)[C@H](Cc2ccccc2)NC(=O)c2cccc(C)c2Cl)cc1 [Compound 16, (S)-2-Chloro-N-{1-[2-(4-methoxy-phenylamino)-ethylcarbamoyl]-2-phenyl-ethyl}-3-methyl-benzamide] | + (+, >10) | < 1000
7 | COc1ccc(NCCNC(=O)[C@H](Cc2ccc(Oc3cc(Cl)cc(Cl)c3)cc2)NC(=O)c2cccc(C)c2)cc1 [Compound 18, (S)-N-{2-[4-(3,5-Dichloro-phenoxy)-phenyl]-1-[2-(4-methoxy-phenylamino)-ethylcarbamoyl]-ethyl}-3-methyl-benzamide] | + (+, >10) | < 10000
8 | CS(=O)(=O)c1ccc(C(=O)N[C@@H](CC2CCCCC2)C(=O)NCCNc2ccc(OC(F)(F)F)cc2)cc1 [Compound 19, N-(S)-{2-cyclohexyl-1-[2-(4-trifluoromethoxy-phenylamino)-ethylcarbamoyl]-ethyl}-4-methanesulfonyl-benzamide] | + (+, >10) | < 1000
9 | COc1ccc(NCCNC(=O)[C@H](Cc2ccccc2)NC(=O)c2cc(C)c(OCc3ccccc3)c(C)c2)cc1 [Compound 20, (S)-4-Benzyloxy-N-{1-[2-(4-methoxy-phenylamino)-ethylcarbamoyl]-2-phenyl-ethyl}-3,5-dimethyl-benzamide] | ++ (++, >100) | < 1000
10 | (S)-3-Bromo-N-{1-[2-(4-methoxy-phenylamino)-ethylcarbamoyl]-2-phenyl-ethyl}-4-methyl-benzamide [Compound 24] | + (+, >10) | 

Other lines, results leading:

Row | Selectivity for Cat. S over Cat. K (Cathepsin K) | Ki (Cathepsin S) [nM] | Compound
11 | ++ (++, >100) | < 100 | O=C(N[C@@H](CC1CCCCC1)C(=O)NCCNc1ccc(F)cc1)C(F)c1ccccc1 (mixture of isomers) [Compound 86, 3-Cyclohexyl-2-(S)-(2-(R,S)-fluoro-2-phenyl-acetylamino)-N-[2-(4-fluoro-phenylamino)-ethyl]-propionamide]
12 | ++ (++, >100) | < 100 | CC(C(=O)NC(CC1CCCCC1)C(=O)NCCNc1ccc(F)cc1)c1ccc(F)cc1 (mixture of isomers) [Compound 320, N-(S)-{2-cyclohexyl-1-[2-(4-fluoro-phenylamino)-ethylcarbamoyl]-ethyl}-2-(R,S)-(4-fluoro-phenyl)-propionamide]
13 | +++ (+++, >1000) | < 100 | COc1ccc(NCCNC(=O)C(NC(=O)c2cccc(C)c2)c2ccc(Cl)cc2)cc1 (racemic) [Compound 8, (±)-N-((2-(4-methoxyphenylamino)ethylcarbamoyl)(4-chlorophenyl)methyl)-3-methylbenzamide]
14 | + (+, >10) | < 1000 | COc1ccc(NCCNC(=O)C(NC(=O)c2ccc(-c3cccc(C(F)(F)F)c3)o2)c2ccccc2)cc1 (racemic) [Compound 9, (±)-N-((2-(4-methoxyphenylamino)ethylcarbamoyl)(phenyl)-methyl)-5-(3-(trifluoromethyl)phenyl)furan-2-carboxamide]
15 | + (+, >10) | < 100 | COc1ccc(NCCNC(=O)[C@H](Cc2ccccc2Cl)NC(=O)c2ccc(-c3cccc(C(F)(F)F)c3)o2)cc1 [Compound 2, N-((S)-1-(2-(4-methoxyphenylamino)ethylcarbamoyl)-2-(2-chlorophenyl)ethyl)-5-(3-(trifluoromethyl)phenyl)furan-2-carboxamide]
16 | +++ (+++, >1000) | < 100 | COc1ccc(NCCNC(=O)[C@H](Cc2cccc(Cl)c2)NC(=O)c2ccc(-c3cccc(C(F)(F)F)c3)o2)cc1 [Compound 3, N-((S)-1-(2-(4-methoxyphenylamino)ethylcarbamoyl)-2-(3-chlorophenyl)ethyl)-5-(3-(trifluoromethyl)phenyl)furan-2-carboxamide]
17 | +++ (+++, >1000) | < 100 | COc1ccc(NCCNC(=O)[C@H](Cc2ccc(Cl)cc2)NC(=O)c2ccc(-c3cccc(C(F)(F)F)c3)o2)cc1 [Compound 4, N-((S)-1-(2-(4-methoxyphenylamino)ethylcarbamoyl)-2-(4-chlorophenyl)ethyl)-5-(3-(trifluoromethyl)phenyl)furan-2-carboxamide]
18 | ++ (++, >100) | < 100 | COc1ccc(NCCNC(=O)[C@H](CC2CCCC2)NC(=O)c2ccc(-c3cccc(C(F)(F)F)c3)o2)cc1 [Compound 6, N-((S)-1-(2-(4-methoxyphenylamino)ethylcarbamoyl)-2-cyclopentylethyl)-5-(3-(trifluoromethyl)phenyl)furan-2-carboxamide]
19 | +++ (+++, >1000) | < 100 | O=C(N[C@@H](CC1CCCCC1)C(=O)NCCNc1ccc(OC(F)F)cc1)c1ccc(-c2cccc(C(F)(F)F)c2)o1 [Compound 10, N-((S)-1-(2-(4-(difluoromethoxy)phenylamino)ethylcarbamoyl)-2-cyclohexylethyl)-5-(3-(trifluoromethyl)phenyl)furan-2-carboxamide]
20 | + (+, >10) | < 100 | O=C(O)c1ccc(NCCNC(=O)[C@H](CC2CCCCC2)NC(=O)c2ccc(-c3cccc(C(F)(F)F)c3)o2)cc1 [Compound 11, 4-[2-(3-Cyclohexyl-2-(S)-{[5-(3-trifluoromethyl-phenyl)-furan-2-carbonyl]-amino}-propionylamino)-ethylamino]-benzoic acid]
21 | + (+, >10) | < 100 | O=C(N[C@@H](CC1CCCCC1)C(=O)NCCNc1ccccc1C(=O)O)c1ccc(-c2cccc(C(F)(F)F)c2)o1 [Compound 12, 2-[2-(3-Cyclohexyl-2-(S)-{[5-(3-trifluoromethyl-phenyl)-furan-2-carbonyl]-amino}-propionylamino)-ethylamino]-benzoic acid]
22 | +++ (+++, >1000) | < 100 | C[C@@H](C(=O)N[C@@H](CCC1CCCCC1)C(=O)NCCNc1ccc(OC(F)(F)F)cc1)c1ccccc1 [Compound 13, 4-Cyclohexyl-2-(S)-(2-(R)-phenyl-propionylamino)-N-[2-(4-trifluoromethoxy-phenylamino)-ethyl]-butyramide]
23 | ++ (++, >100) | < 100 | COc1ccc(CC(=O)NC(CC2CCCCC2)C(=O)NCCNc2ccc(OC(F)(F)F)cc2)cc1 (stereo not drawn) [Compound 17, 3-Cyclohexyl-2-[2-(4-methoxy-phenyl)-acetylamino]-N-[2-(4-trifluoromethoxy-phenylamino)-ethyl]-propionamide]
